Laboratory results published in publication PMC9112895, “Selective Inhibition of Plasmodium falciparum ATPase 6 by Artemisinins and Identification of New Classes of Inhibitors after Expression in Yeast” (Antimicrobial Agents and Chemotherapy, 2022).
pIC50: −log10 of the molar value.

How the values were obtained:
[1] = target: T1, L263E PfATP6 (Plasmodium falciparum, UniProt Q08853, L263E); assay: Yeast whole-cell assay, PfATP6 L263E mutant; type: cell-based; details: L263 mutant; read-out: IC50 (mean ± SD)
T1 construct: expressed in transfected cells; host or cells: Saccharomyces cerevisiae K667-derived strain
T1 sequence (Q08853 1-1228 L263E): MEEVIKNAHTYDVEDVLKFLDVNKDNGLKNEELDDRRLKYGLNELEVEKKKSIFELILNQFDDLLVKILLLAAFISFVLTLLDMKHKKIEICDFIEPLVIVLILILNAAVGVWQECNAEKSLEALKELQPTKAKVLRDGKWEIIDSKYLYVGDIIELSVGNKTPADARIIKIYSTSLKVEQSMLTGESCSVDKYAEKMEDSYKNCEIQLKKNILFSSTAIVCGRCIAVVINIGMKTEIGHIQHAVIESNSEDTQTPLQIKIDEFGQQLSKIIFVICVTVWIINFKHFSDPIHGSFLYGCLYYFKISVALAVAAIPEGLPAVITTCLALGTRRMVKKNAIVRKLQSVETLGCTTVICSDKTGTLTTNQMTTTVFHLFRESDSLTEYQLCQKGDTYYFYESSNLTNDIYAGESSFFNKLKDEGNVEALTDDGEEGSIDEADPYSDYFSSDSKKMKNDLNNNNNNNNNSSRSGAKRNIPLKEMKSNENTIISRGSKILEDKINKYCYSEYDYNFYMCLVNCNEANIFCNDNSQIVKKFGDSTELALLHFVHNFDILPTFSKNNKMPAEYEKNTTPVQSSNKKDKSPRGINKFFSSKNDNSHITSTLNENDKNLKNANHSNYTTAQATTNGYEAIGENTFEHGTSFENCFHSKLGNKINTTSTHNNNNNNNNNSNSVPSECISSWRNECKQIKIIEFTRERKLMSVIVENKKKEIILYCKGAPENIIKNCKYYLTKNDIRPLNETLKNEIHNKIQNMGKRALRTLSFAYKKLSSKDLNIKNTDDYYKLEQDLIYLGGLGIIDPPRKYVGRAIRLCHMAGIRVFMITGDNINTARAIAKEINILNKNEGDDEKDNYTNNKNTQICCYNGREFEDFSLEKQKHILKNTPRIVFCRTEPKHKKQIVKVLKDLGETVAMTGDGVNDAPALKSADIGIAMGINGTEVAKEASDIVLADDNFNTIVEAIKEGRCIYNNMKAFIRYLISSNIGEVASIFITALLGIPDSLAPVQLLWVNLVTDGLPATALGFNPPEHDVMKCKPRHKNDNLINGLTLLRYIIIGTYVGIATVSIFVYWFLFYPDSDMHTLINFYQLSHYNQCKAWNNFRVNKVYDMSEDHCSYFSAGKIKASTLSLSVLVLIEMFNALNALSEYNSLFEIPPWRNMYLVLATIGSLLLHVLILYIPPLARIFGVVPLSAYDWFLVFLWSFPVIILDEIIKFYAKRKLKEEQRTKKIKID
Experimental: Yeast transformations were performed using the method described by Gietz and Schiestl ([48]), and transformants were selected by an uracil auxotrophic marker. Transformations were confirmed by colony PCR. Both K667 and K667Δpdr5::HIS were transformed with the following plasmids: pUGpd plasmid as a vector-only control (derived from pRS316 [49]); br434 plasmid (derived from pRS316 [50]) containing the SERCA1a coding region from rabbit skeletal fast-twitch muscle (pbr434-SERCA1a); and pUGpd containing the yeast-optimized coding region of PfATP6 from Plasmodium falciparum (pUGpd-PfATP6). Site-directed mutagenesis was performed on the SERCA1a coding region to produce the mutation E255L in the protein. Mutations were also introduced into the PfATP6 coding region to produce mutations L263E, A623E, and S769N and the double mutation A623E/S769N ([13]).
The screening assay used here was developed from the protocol used by Pulcini et al. ([13]). […] The optimal calcium concentration was periodically monitored and, if necessary, adjusted using a calcium concentration range of 10 to 30 mM. […] The yeast growth was estimated from the absorbance at 620 nm in a Tecan plate reader. […] The data collected were analyzed using GraphPad Prism v9.0 (GraphPad software, San Diego, CA, U.S.A).

[2] = target: PfATP6 (Plasmodium falciparum, UniProt Q08853); assay: In vitro activity assay, PfATP6 (membrane-bound); type: biochemical; parameters: pUGpd containing the yeast-optimized coding region of PfATP6 from Plasmodium falciparum; expressed in transfected cells; details: 1 μM free calcium
Experimental: Activity assays were performed as described by Longland et al. ([55]) and LeBel et al. ([56]), except that the reaction mixtures were incubated at 30°C instead of 37°C. […] Then, 5.8 mM ATP was added and incubated for an additional 15 min at 30°C. The reaction was stopped with 0.5 mL 6.5% trichloroacetic acid (TCA) on ice, and the mixture was centrifuged at 4°C for 10 min at 16,000 × g; 0.5 mL of the supernatant was added to 1.5 mL of copper acetate buffer (0.25% copper sulfate pentahydrate, 4.6% sodium acetate trihydrate, dissolved in 2 M acetic acid [pH 4.0]) and mixed by vortex-mixing before the addition of 0.25 mL of 5% ammonium molybdate, followed by 0.25 mL METOL buffer (2% p-methyl-aminophenol sulfate, 5% sodium sulfite). Samples were incubated for 10 min, and the absorbance was measured at 870 nm in a spectrophotometer. The Pi standard was 0.4387 g/100 mL KH2PO4.

Sequence of PfATP6 (Q08853 whole entry): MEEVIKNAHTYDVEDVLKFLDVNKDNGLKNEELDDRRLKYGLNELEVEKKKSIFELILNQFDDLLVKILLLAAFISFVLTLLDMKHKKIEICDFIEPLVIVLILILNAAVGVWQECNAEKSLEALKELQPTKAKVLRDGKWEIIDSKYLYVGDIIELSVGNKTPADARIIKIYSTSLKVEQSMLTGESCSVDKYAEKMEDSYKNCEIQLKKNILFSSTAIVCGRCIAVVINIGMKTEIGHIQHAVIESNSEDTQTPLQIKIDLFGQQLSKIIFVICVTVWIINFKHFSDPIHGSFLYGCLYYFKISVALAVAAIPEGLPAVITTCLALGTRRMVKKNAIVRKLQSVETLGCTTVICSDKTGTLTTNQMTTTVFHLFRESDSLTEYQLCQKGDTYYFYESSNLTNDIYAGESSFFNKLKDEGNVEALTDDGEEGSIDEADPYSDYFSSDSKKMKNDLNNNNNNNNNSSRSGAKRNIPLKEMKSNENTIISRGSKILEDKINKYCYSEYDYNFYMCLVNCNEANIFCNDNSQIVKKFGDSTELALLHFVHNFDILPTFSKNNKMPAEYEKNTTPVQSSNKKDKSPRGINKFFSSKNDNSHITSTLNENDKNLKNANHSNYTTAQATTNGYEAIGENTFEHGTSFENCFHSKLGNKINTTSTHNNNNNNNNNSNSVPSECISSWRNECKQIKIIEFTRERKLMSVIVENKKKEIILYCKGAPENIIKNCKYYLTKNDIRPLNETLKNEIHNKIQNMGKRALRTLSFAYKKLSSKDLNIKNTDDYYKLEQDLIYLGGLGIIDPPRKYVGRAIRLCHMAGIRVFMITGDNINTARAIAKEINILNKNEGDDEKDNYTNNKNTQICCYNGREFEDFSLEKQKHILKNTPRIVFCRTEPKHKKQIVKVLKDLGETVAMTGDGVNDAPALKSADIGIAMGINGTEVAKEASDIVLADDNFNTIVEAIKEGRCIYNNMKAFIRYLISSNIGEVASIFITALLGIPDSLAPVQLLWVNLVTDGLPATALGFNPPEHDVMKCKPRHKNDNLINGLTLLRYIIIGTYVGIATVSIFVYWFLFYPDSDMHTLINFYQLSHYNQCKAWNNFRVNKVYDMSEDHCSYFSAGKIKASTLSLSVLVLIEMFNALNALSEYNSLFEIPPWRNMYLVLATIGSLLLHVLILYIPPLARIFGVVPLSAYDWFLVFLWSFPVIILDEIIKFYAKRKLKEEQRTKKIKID

Structure (SMILES): CC(=O)C1=C(O)[C@@H]2[C@H]3c4c[nH]c5cccc(c45)C[C@H]3C(C)(C)N2C1=O [CPA, cyclopiazonic acid]
- pIC50 [1]: 5.28
- in vitro activity of PfATP6 versus no drug control [2]: No significant
